Source: patent US20160008376A1, “Compositions, Methods and Uses for Treating Gender-Biased Immune Disorders” (Biocopea Limited, priority 2014, published 2016)

Tested on: antibodies directed to the CH47 region of the P1/P2 ribosomal protein
Test: Hormone added to sera of immunized female mice, antibody signal for the CH47 peptide
Format: binding
Settings: overall
Experimental: In a second series of experiments, Testosterone (0 ng/mL, 0.5 ng/mL, 1 ng/mL, 2 ng/mL, and 4 ng/mL) or Progesterone (0 ng/mL, 2 ng/mL, 4 ng/mL, 8 ng/mL, and 14 ng/mL) was added to the sera of female mice immunized with a variety of different Chagas peptides (Formulation 1 or 2) that either include (B) or excluded (A) specifically peptide CH47. […] At low hormone concentrations there was an increase in the antibody signal with a subsequent decrease as the concentration of hormone further increased.

Row | Compound | decrease in the IgG response (hormone 0-14 ng/mL) | decrease in the antibody response (hormone 0-4 ng/mL)
1 | CC(=O)[C@H]1CC[C@H]2[C@@H]3CCC4=CC(=O)CC[C@]4(C)[C@H]3CC[C@]12C [Progesterone, pregn-4-ene-3,20-dione] | 26.2% | –
2 | C[C@]12CC[C@H]3[C@@H](CCC4=CC(=O)CC[C@@]43C)[C@@H]1CC[C@@H]2O [Testosterone] | – | 24.4%
